In patent US9266883B2, “Ring-fused bicyclic pyridyl derivatives as FGFR4 inhibitors” (Novartis AG, priority 2013, dated 2016):

Columns and labels:
[1] = target: FGFR4 (GST-FGFR4(388-802)) (Homo sapiens (Human), UniProt P22455); assay: In-vitro biochemical kinase assay for FGFR4 (Caliper microfluidic mobility shift); settings: read-out: Biochemical FGFR4 IC50
Tel-FGFR4 = Tel-FGFR4 (Homo sapiens (Human), UniProt P22455); assay: In vitro cellular kinase assay for FGFR4 (BaF3-Tel-FGFR4 cells, MSD capture ELISA of tyrosine phosphorylation); format: cell-based; settings: BaF3-Tel-FGFR4 cells, 1 hour incubation; read-out: Cellular BaF3 FGFR4 IC50
Tel-FGFR4, sequence (P22455 other isoform, or with tags, fused parts or gaps): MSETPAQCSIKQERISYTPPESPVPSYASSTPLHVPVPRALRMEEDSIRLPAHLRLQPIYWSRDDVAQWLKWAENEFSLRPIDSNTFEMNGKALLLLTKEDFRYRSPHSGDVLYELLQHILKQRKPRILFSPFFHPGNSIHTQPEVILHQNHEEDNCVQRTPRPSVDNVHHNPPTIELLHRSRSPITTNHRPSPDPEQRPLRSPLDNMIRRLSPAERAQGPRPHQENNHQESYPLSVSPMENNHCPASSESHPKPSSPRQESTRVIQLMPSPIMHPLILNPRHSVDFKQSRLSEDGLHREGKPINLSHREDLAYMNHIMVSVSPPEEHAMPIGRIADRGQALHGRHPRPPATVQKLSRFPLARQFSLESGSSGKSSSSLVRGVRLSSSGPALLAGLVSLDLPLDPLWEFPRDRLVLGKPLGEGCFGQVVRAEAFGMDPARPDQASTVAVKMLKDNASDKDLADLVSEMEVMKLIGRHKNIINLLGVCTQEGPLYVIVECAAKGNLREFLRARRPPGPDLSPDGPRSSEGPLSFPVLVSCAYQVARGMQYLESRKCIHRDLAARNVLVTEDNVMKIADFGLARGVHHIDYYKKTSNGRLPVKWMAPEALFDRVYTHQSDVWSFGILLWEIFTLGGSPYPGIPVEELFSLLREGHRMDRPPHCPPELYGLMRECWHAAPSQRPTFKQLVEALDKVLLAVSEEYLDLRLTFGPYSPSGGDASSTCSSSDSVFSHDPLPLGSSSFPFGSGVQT

FGFR1 (407-822) = FGFR1 (407-822) (Homo sapiens (Human), UniProt P11362); assay: In vitro biochemical assay for FGFR1
FGFR1 (407-822), sequence (P11362 407-822): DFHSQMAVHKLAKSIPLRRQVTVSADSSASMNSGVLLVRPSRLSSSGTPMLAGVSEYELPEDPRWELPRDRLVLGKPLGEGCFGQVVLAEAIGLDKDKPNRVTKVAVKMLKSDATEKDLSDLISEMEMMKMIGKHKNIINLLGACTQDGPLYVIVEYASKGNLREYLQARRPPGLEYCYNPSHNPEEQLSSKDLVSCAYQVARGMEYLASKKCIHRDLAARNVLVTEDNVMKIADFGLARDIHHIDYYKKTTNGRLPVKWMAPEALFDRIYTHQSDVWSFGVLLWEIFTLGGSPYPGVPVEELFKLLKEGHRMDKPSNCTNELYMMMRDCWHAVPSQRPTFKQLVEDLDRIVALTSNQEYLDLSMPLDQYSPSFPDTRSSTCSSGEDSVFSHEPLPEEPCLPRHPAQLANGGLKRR

FGFR2 (406-821) = FGFR2 (406-821) (Homo sapiens (Human), UniProt P21802); assay: In vitro biochemical assay for FGFR2
FGFR2 (406-821), sequence (P21802 406-821): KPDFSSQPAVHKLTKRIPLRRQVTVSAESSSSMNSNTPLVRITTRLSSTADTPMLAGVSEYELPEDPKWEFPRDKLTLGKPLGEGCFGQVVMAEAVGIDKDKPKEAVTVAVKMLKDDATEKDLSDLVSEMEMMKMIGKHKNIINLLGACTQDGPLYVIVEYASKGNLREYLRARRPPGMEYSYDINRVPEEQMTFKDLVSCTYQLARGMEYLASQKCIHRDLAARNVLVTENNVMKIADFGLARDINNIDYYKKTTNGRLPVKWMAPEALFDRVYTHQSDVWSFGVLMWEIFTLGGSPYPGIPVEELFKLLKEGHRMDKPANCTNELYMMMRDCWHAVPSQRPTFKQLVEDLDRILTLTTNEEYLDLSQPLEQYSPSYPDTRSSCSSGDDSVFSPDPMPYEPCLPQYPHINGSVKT

FGFR3 (411-806) = FGFR3 (411-806) (Homo sapiens (Human), UniProt P22607); assay: In vitro biochemical assay for FGFR3
FGFR3 (411-806), sequence (P22607 411-806): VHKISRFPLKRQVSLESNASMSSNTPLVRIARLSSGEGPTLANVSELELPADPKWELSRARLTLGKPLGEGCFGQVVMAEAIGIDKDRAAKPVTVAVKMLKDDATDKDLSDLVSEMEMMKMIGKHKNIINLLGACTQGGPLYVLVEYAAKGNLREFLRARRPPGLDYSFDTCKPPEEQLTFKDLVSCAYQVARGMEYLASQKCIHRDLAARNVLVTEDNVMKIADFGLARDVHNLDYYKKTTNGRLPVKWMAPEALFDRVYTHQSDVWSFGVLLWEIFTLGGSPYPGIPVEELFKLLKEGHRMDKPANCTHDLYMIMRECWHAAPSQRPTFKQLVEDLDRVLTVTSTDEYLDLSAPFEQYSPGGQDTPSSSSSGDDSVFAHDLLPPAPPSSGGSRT

[2] = test system: HuH-7 hepatocellular carcinoma cells; assay: CellTiter Glo (CTG) Assay; settings: Homo sapiens, Huh-7, 72 h, read-out: HUH7 proliferation (nM) CTG

FGFR4 (GST-FGFR4(388-802)), sequence (P22455 388-802): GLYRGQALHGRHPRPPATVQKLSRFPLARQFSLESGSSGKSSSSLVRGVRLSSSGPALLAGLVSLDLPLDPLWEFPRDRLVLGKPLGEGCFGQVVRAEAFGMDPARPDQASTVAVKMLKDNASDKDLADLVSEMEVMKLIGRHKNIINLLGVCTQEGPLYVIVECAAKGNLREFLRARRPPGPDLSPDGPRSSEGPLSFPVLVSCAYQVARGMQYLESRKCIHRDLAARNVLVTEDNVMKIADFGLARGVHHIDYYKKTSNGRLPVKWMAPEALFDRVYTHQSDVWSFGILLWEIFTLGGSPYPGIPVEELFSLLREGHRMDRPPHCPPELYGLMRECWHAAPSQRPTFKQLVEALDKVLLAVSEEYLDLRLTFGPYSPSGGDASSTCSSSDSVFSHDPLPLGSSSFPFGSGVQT

Row | IC50 (FGFR1 (407-822)) [µM] | IC50 (FGFR2 (406-821)) [µM] | IC50 (FGFR3 (411-806)) [µM] | IC50 [2] [nM] | SMILES | IC50 [1] [µM] | IC50 (Tel-FGFR4) [µM]
1 | > 10 | > 10 | > 10 | – | COCC(C)Oc1cc(NC(=O)N2CCCc3cc(CO)c(C=O)nc32)ncc1C#N (racemic) [Example 48, N-(5-cyano-4-((1-methoxypropan-2-yl)oxy)pyridin-2-yl)-7-formyl-6-(hydroxymethyl)-3,4-dihydro-1,8-naphthyridine-1(2H)-carboxamide] | 0.0032 | 0.0088
2 | > 10 | > 10 | > 10 | 2540 | COCCNc1cc(NC(=O)N2CCCc3cc(N4CCC(C)C4=O)c(C=O)nc32)ncc1C#N (racemic) [Example 261, N-(5-cyano-4-((2-methoxyethyl)amino)pyridin-2-yl)-7-formyl-6-(3-methyl-2-oxopyrrolidin-1-yl)-3,4-dihydro-1,8-naphthyridine-1(2H)-carboxamide] | – | –
3 | > 10 | > 10 | > 10 | 45 | CC(C)Nc1cc(NC(=O)N2CCCc3cc(CN4CCN(C)CC4=O)c(C=O)nc32)ncc1C#N [Example 95, N-(5-cyano-4-(isopropylamino)pyridin-2-yl)-7-formyl-6-((4-methyl-2-oxopiperazin-1-yl)methyl)-3,4-dihydro-1,8-naphthyridine-1(2H)-carboxamide] | – | –
4 | > 10 | > 10 | > 10 | > 3000 | COCCOc1cc(NC(=O)N2CCCCc3ccc(C=O)nc32)ncc1C#N [Example 202, N-(5-cyano-4-(2-methoxyethoxyl)pyridin-2-yl)-2-formyl-7,8-dihydro-5H-pyrido[2,3-b]azepine-9(6H)-carboxamide] | – | –
5 | > 10 | > 10 | > 10 | 599 | COCCOc1cc(NC(=O)N2CCCc3cc(C4CC4)c(C=O)nc32)ncc1C#N [Example 62, N-(5-cyano-4-(2-methoxyethoxyl)pyridin-2-yl)-6-cyclopropyl-7-formyl-3,4-dihydro-1,8-naphthyridine-1(2H)-carboxamide] | – | –
6 | > 10 | > 10 | > 10 | – | COCCOc1cc(NC(=O)N2CCCc3cc(C(F)F)c(C=O)nc32)ncc1C#N [Example 63, N-(5-cyano-4-(2-methoxyethoxyl)pyridin-2-yl)-6-(difluoromethyl)-7-formyl-3,4-dihydro-1,8-naphthyridine-1(2H)-carboxamide] | – | –
7 | > 10 | > 10 | > 10 | – | N#Cc1cnc(NC(=O)N2CCCc3cc(CO)c(C=O)nc32)cc1O[C@H]1CCOC1 [Example 50, (S)-N-(5-cyano-4-((tetrahydrofuran-3-yl)oxy)pyridin-2-yl)-7-formyl-6-(hydroxymethyl)-3,4-dihydro-1,8-naphthyridine-1(2H)-carboxamide] | – | –
8 | > 10 | > 10 | > 10 | 395 | COCCNc1cc(NC(=O)N2CCCc3cc(-c4cnc(C)s4)c(C=O)nc32)ncc1C#N [Example 252, N-(5-cyano-4-((2-methoxyethyl)amino)pyridin-2-yl)-7-formyl-6-(2-methylthiazol-5-yl)-3,4-dihydro-1,8-naphthyridine-1(2H)-carboxamide] | – | –
9 | > 10 | > 10 | > 10 | – | COc1cc(NC(=O)N2CCCc3ccc(C=O)nc32)ncc1C#N [Example 13, N-(5-cyano-4-methoxypyridin-2-yl)-7-formyl-3,4-dihydro-1,8-naphthyridine-1(2H)-carboxamide] | – | –
10 | > 10 | > 10 | > 10 | – | N#Cc1ccc(NC(=O)N2CCCc3ccc(C=O)nc32)nc1 [Example 3, N-(5-cyanopyridin-2-yl)-7-formyl-3,4-dihydro-1,8-naphthyridine-1(2H)-carboxamide] | – | –
11 | > 10 | > 10 | > 10 | 45.5 | COCCNc1cc(NC(=O)N2CCCc3cc(CN(C)C(=O)COC)c(C=O)nc32)ncc1C#N [Example 148, N-(5-cyano-4-((2-methoxyethyl)amino)pyridin-2-yl)-7-formyl-6-((2-methoxy-N-methylacetamido)methyl)-3,4-dihydro-1,8-naphthyridine-1(2H)-carboxamide] | – | –
12 | > 10 | > 10 | > 10 | – | N#Cc1cnc(NC(=O)N2CCCc3ccc(C=O)nc32)cn1 [Example 12, N-(5-cyanopyrazin-2-yl)-7-formyl-3,4-dihydro-1,8-naphthyridine-1(2H)-carboxamide] | – | –
13 | > 10 | > 10 | > 10 | – | N#Cc1cnc(NC(=O)N2CCCc3cc(CO)c(C=O)nc32)cc1O[C@@H]1CCOC1 [Example 49, (R)-N-(5-cyano-4-((tetrahydrofuran-3-yl)oxy)pyridin-2-yl)-7-formyl-6-(hydroxymethyl)-3,4-dihydro-1,8-naphthyridine-1(2H)-carboxamide] | – | –
14 | > 10 | > 10 | > 10 | 202 | N#Cc1cnc(NC(=O)N2CCCc3cc(CO)c(C=O)nc32)cc1NCC1CCCOC1 (racemic) [Example 55, N-(5-cyano-4-(((tetrahydro-2H-pyran-3-yl)methyl)amino)pyridin-2-yl)-7-formyl-6-(hydroxymethyl)-3,4-dihydro-1,8-naphthyridine-1(2H)-carboxamide] | – | –
15 | > 10 | > 10 | > 10 | – | COCCOc1cc(NC(=O)N2CCCc3ccc(C=O)nc32)ncc1C#N [Example 23, N-(5-cyano-4-(2-methoxyethoxyl)pyridin-2-yl)-7-formyl-3,4-dihydro-1,8-naphthyridine-1(2H)-carboxamide] | – | –
16 | > 10 | > 10 | > 10 | – | O=Cc1ccc2c(n1)N(C(=O)Nc1ccc(C(F)(F)F)cn1)CCC2 [Example 1, 7-formyl-N-(5-(trifluoromethyl)pyridin-2-yl)-3,4-dihydro-1,8-naphthyridine-1(2H)-carboxamide] | – | –
17 | > 10 | > 10 | > 10 | – | N#Cc1ccc(NC(=O)N2CCC(O)c3ccc(C=O)nc32)nc1 (racemic) [Example 79, N-(5-cyanopyridin-2-yl)-7-formyl-4-hydroxy-3,4-dihydro-1,8-naphthyridine-1(2H)-carboxamide] | 0.0325 | 0.194
18 | > 10 | > 10 | > 10 | – | N#Cc1cnc(NC(=O)N2CCCc3cc(CO)c(C=O)nc32)cc1NC1CCOC1 (racemic) [Example 56, N-(5-cyano-4-((tetrahydrofuran-3-yl)amino)pyridin-2-yl)-7-formyl-6-(hydroxymethyl)-3,4-dihydro-1,8-naphthyridine-1(2H)-carboxamide] | – | –
19 | > 10 | > 10 | > 10 | – | COCCOc1cc(NC(=O)N2CCCc3cc(CO)c(C=O)nc32)ncc1C#N [Example 39, N-(5-cyano-4-(2-methoxyethoxyl)pyridin-2-yl)-7-formyl-6-(hydroxymethyl)-3,4-dihydro-1,8-naphthyridine-1(2H)-carboxamide] | – | –

Row | SMILES | IC50 (FGFR1 (407-822)) [µM] | IC50 (FGFR2 (406-821)) [µM] | IC50 (FGFR3 (411-806)) [µM] | IC50 [2] [nM] | IC50 [1] [µM] | IC50 (Tel-FGFR4) [µM]
20 | COCCNc1cc(NC(=O)N2c3nc(C=O)c(CN4CCN(C)CC4=O)cc3CC[C@@H]2C)ncc1C#N [Example 228, (S)-N-(5-cyano-4-((2-methoxyethyl)amino)pyridin-2-yl)-7-formyl-2-methyl-6-((4-methyl-2-oxopiperazin-1-yl)methyl)-3,4-dihydro-1,8-naphthyridine-1(2H)-carboxamide] | > 10 | > 10 | > 10 | 62 | 0.0006 | 0.0062
21 | CN1CCN(Cc2cc3c(nc2C=O)N(C(=O)Nc2cc(NCCO)c(C#N)cn2)CCC3)C(=O)C1 [Example 197, N-(5-cyano-4-((2-hydroxyethyl)amino)pyridin-2-yl)-7-formyl-6-((4-methyl-2-oxopiperazin-1-yl)methyl)-3,4-dihydro-1,8-naphthyridine-1(2H)-carboxamide] | > 10 | > 10 | > 10 | 146 | 0.0012 | 0.0191
22 | CN1CCN(Cc2cc3c(nc2C=O)N(C(=O)Nc2cc(NC45CC(C4)C5)c(C#N)cn2)CCC3)C(=O)C1 [Example 237, N-(4-(bicyclo[1.1.1]pentan-1-ylamino)-5-cyanopyridin-2-yl)-7-formyl-6-((4-methyl-2-oxopiperazin-1-yl)methyl)-3,4-dihydro-1,8-naphthyridine-1(2H)-carboxamide] | > 10 | > 10 | > 10 | 18 | 0.0019 | 0.019
23 | COCCNc1cc(NC(=O)N2CCCc3cc(CN4CCS(=O)(=O)CC4=O)c(C=O)nc32)ncc1C#N [Example 150, N-(5-cyano-4-((2-methoxyethyl)amino)pyridin-2-yl)-6-((1,1-dioxido-3-oxothiomorpholino)methyl)-7-formyl-3,4-dihydro-1,8-naphthyridine-1(2H)-carboxamide] | > 10 | > 10 | > 10 | 45.5 | 0.0012 | 0.0058
24 | COCCOc1cc(NC(=O)N2CCCc3cc(CN(C)C)c(C=O)nc32)ncc1C#N [Example 64, N-(5-cyano-4-(2-methoxyethoxyl)pyridin-2-yl)-6-((dimethylamino)methyl)-7-formyl-3,4-dihydro-1,8-naphthyridine-1(2H)-carboxamide] | > 10 | > 10 | > 10 | – | 0.16 | 0.713
